Structures are written as SMILES.

The assay has as its system T1, p65 (AmCPV S5-encoded guanylyltransferase).
T1 construct: entire S5 ORF (nt 266 to 2086; 606 residues, ~65 kDa), His-tagged in pQE-30, E. coli M15, Ni-NTA
As to the kind of experiment: pyrophosphatase-coupled malachite green assay of capping, replot of double-reciprocal plots. Format: biochemical, Antheraea mylitta cypovirus 4. Conditions: co-substrate 5'-diphosphate-ended viral RNA (50 to 150 nM), 5 mM MgCl2, 5 mM DTT, 50 mM Tris-HCl pH 7.5, 25°C; ping-pong; covalent GMP intermediate.

Turning to `Nc1nc2c(ncn2[C@@H]2O[C@H](COP(=O)(O)OP(=O)(O)OP(=O)(O)O)[C@@H](O)[C@H]2O)c(=O)[nH]1` [GTP], the Km – broadly, the concentration of substrate that gives half-maximal velocity – was 34.2 µM.

The values are drawn from PMC4000049, “Genome segment 5 of Antheraea mylitta cytoplasmic polyhedrosis virus encodes a bona fide guanylyltransferase” (Virology Journal, 2014).
